Reference: ChEMBL document CHEMBL1909046, “DrugMatrix in vitro pharmacology data”

Columns and labels:
B2 bradykinin receptor = biological target: T1, B2 bradykinin receptor (Homo sapiens, UniProt P30411); format: cell membranes, Membrane; details: chem-1; also: in other assays of this panel Not Active means under 50% inhibition at 10 µM
T1 sequence (P30411 whole entry): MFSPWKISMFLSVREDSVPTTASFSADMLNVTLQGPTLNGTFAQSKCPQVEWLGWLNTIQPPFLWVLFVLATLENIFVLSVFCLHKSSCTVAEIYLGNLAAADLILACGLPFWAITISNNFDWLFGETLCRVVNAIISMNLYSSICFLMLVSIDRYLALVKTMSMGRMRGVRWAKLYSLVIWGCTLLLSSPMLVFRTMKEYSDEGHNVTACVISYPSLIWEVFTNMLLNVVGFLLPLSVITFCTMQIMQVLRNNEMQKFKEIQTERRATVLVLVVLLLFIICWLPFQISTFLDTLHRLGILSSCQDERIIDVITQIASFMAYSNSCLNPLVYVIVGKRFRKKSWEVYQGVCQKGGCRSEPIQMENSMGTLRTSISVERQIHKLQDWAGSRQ

[1] = biological target: 5-hydroxytryptamine receptor 4 (Cavia porcellus, UniProt O70528); format: cell membranes, Dunkin-Hartley, Striatum, Membrane; also: in other assays of this panel Not Active means under 50% inhibition at 10 µM
[2] = biological target: T2, C-X-C chemokine receptor type 1 (Homo sapiens, UniProt P25024); also: in other assays of this panel Not Active means under 50% inhibition at 10 µM
T2 sequence (P25024 whole entry): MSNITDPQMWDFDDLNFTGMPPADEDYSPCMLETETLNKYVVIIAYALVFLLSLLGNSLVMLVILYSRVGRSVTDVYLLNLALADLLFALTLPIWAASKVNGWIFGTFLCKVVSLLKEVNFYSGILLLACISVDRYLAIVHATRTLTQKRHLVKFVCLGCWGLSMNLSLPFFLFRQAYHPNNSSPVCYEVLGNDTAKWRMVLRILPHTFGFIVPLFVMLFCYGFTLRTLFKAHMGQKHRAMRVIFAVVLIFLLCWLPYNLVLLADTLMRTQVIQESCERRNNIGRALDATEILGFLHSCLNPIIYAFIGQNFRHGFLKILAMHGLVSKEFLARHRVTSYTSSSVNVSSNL

[3] = biological target: Prostaglandin G/H synthase 1 (Homo sapiens, UniProt P23219); assay: biochemical; format: tissue-based, Platelet; details: platelet;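 also: inhibition of COX-1 enzyme activity, with arachidonic acid supplied as substrate; in other assays of this panel Not Active means under 50% inhibition at 10 µM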
D(4) dopamine receptor = biological target: T3, D(4) dopamine receptor (Homo sapiens, UniProt P21917); assay: DRUGMATRIX: Dopamine D4.2 radioligand binding (ligand: [3H] Spiperone); format: cell membranes, Membrane; details: cho-k1; Not Active = under 50% inhibition at 10 µM
T3 sequence (P21917 whole entry): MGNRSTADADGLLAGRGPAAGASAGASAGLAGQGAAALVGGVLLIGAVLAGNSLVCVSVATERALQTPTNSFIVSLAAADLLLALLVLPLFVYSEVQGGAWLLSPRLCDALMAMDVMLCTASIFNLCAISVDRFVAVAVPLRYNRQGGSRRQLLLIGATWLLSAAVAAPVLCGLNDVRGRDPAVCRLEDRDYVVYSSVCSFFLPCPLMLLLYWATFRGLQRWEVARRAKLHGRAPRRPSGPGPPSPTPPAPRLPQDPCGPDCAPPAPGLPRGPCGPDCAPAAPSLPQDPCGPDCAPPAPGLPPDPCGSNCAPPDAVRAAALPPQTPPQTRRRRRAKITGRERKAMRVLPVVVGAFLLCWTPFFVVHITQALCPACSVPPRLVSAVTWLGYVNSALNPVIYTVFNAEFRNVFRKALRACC

[4] = DRUGMATRIX: GABAA, Muscimol, Central radioligand binding (ligand: [3H] Muscimol); format: cell membranes, Rattus norvegicus, Wistar, Brain, Membrane; details: Not Active = under 50% inhibition at 10 µM
[5] = biological target: T4, Polyunsaturated fatty acid lipoxygenase ALOX15 (Oryctolagus cuniculus, UniProt P12530); assay: biochemical; format: tissue-based, Reticulocytes
T4 sequence (P12530 whole entry): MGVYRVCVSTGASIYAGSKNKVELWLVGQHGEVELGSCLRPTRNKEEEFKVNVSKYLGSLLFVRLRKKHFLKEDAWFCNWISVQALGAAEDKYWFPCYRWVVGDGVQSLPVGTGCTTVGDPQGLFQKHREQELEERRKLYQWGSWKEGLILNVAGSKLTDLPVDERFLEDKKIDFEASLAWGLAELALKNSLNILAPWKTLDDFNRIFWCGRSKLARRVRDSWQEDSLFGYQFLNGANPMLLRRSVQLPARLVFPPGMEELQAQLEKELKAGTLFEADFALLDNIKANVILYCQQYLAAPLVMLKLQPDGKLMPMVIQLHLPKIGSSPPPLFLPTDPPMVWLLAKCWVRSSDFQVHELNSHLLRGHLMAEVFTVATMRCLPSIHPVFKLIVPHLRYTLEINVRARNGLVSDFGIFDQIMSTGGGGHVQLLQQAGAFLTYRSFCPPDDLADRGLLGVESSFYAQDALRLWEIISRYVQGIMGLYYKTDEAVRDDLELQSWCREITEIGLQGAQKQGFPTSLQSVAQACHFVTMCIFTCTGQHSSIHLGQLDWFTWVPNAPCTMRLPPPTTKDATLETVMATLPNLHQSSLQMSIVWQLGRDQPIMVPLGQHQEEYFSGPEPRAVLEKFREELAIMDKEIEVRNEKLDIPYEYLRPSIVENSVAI

Melanocortin receptor 4 = Melanocortin receptor 4 (Homo sapiens, UniProt P32245); format: cell membranes, Membrane; details: hek293; also: in other assays of this panel Not Active means under 50% inhibition at 10 µM
Cathepsin G = biological target: T5, Cathepsin G (Homo sapiens, UniProt P08311); format: tissue-based; details: neutrophil
T5 sequence (P08311 whole entry): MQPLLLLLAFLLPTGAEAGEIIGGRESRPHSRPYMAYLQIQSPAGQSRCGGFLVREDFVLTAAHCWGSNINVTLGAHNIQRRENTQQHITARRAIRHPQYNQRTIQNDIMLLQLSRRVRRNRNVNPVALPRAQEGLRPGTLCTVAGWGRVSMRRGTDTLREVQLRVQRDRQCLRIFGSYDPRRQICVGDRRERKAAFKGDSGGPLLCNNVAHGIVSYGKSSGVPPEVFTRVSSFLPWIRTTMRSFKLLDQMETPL

Chain of Melanocortin receptor 4 (P32245 whole entry): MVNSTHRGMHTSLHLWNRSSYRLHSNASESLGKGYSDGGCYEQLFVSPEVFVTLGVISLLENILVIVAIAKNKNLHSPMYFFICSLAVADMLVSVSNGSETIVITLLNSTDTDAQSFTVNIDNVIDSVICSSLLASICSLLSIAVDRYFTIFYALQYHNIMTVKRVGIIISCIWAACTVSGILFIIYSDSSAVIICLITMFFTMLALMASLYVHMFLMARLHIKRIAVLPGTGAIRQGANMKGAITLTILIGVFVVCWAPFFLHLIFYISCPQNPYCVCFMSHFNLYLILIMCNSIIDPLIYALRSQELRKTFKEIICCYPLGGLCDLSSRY
Chain of 5-hydroxytryptamine receptor 4 (O70528 whole entry): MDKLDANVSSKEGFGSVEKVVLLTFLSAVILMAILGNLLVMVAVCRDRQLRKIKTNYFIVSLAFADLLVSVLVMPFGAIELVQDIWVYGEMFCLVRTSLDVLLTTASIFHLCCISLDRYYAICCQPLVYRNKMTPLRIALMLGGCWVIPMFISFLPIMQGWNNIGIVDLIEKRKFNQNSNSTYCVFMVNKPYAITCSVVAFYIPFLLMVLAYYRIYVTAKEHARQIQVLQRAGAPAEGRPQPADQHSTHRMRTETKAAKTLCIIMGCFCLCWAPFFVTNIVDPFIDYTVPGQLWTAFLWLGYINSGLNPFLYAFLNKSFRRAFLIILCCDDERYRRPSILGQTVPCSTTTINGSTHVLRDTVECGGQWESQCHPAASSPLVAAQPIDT
Chain of Prostaglandin G/H synthase 1 (P23219 whole entry): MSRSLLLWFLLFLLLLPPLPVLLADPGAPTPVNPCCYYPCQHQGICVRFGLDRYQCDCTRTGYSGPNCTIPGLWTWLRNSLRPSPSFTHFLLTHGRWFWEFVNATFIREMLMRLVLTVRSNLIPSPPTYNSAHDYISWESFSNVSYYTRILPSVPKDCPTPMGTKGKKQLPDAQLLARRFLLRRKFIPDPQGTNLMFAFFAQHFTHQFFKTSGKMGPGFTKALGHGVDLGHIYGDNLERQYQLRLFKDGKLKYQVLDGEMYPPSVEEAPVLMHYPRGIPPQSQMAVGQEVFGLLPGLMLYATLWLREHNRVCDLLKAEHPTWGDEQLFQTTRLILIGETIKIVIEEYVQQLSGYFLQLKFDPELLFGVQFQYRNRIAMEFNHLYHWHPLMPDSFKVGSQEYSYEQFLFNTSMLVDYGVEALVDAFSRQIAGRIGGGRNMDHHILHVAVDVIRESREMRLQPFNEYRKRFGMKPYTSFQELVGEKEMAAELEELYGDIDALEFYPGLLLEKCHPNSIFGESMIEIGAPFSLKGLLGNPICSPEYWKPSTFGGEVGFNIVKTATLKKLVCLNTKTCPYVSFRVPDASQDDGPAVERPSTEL

Compound	IC50 (B2 bradykinin receptor)	IC50 [1]	IC50 [2]	IC50 [3]	IC50 (D(4) dopamine receptor)	IC50 [4]	Ki [4]	IC50 ([5]; reticulocytes)	IC50 (Melanocortin receptor 4)	IC50 (Cathepsin G)	IC50 ([5]; read-out: IC50) [µM]
CC1=C(CC(=O)O)c2cc(F)ccc2/C1=C\c1ccc([S+](C)[O-])cc1 (configuration not stated)	Not Active	Not Active	Not Active	Not Active	Not Active	Not Active	Not Active	Not Active	Not Active	Not Active	
N[C@H](CSC(=S)NCc1ccccc1)C(=O)O	Not Active	Not Active	Not Active	Not Active	Not Active	Not Active	Not Active	Not Active	Not Active	Not Active	
CC(=O)N[C@@H]1[C@H](Oc2c3cc4cc2Oc2ccc(cc2Cl)[C@@H](O[C@@H]2O[C@@H](CO)[C@@H](O)[C@H](O)[C@@H]2NC(C)=O)[C@@H]2NC(=O)[C@H](NC(=O)[C@@H]4NC(=O)[C@H]4NC(=O)[C@@H](Cc5ccc(c(Cl)c5)O3)NC(=O)[C@H](N)c3ccc(O)c(c3)Oc3cc(O)cc4c3)c3ccc(O)c(c3)-c3c(O[C@H]4O[C@H](CO)[C@@H](O)[C@@H](O)[C@@H]4O)cc(O)cc3[C@@H](C(=O)O)NC2=O)O[C@@H](CO)[C@@H](O)[C@@H]1O	Not Active	Not Active	Not Active	Not Active	Not Active	Not Active	Not Active	Not Active	Not Active	Not Active	
Clc1ccc2c(c1)C(N1CCNCC1)=Nc1ccccc1O2 [AMOXAPINE]	Not Active	Not Active	Not Active	Not Active	Not Active			Not Active	Not Active	Not Active	
COc1cc2c(c(OC)c1OC)-c1ccc(OC)c(=O)cc1[C@@H](NC(C)=O)CC2 [COLCHICINE]	Not Active	Not Active	Not Active	Not Active	Not Active			Not Active	Not Active	Not Active	
CN1CCC(=C2c3ccccc3C=Cc3ccccc32)CC1 [CYPROHEPTADINE]	Not Active	Not Active	Not Active	Not Active	Not Active			Not Active	Not Active	Not Active	
CC/C(=C(/CC)c1ccc(O)cc1)c1ccc(O)cc1 [DIETHYLSTILBESTROL]	Not Active	Not Active	Not Active		Not Active				Not Active	Not Active	2.96
CC(=O)N1CCN(c2ccc(OCC3COC(Cn4ccnc4)(c4ccc(Cl)cc4Cl)O3)cc2)CC1 (configuration not stated) [KETOCONAZOLE]	Not Active	Not Active	Not Active	Not Active	Not Active	Not Active	Not Active		Not Active	Not Active	5.42
C=CCN1CC[C@]23c4c5ccc(O)c4O[C@H]2C(=O)CC[C@@]3(O)[C@H]1C5 [NALOXONE]	Not Active	Not Active	Not Active	Not Active	Not Active			Not Active	Not Active	Not Active	
COCCOC(=O)C1=C(C)NC(C)=C(C(=O)OC(C)C)C1c1cccc([N+](=O)[O-])c1 (configuration not stated) [NIMODIPINE]	Not Active	Not Active	Not Active	Not Active	Not Active	Not Active	Not Active	Not Active	Not Active	Not Active	
CC(C)NCC(O)COc1cccc2ccccc12 (configuration not stated) [PROPRANOLOL]	Not Active	Not Active	Not Active	Not Active	Not Active			Not Active	Not Active	Not Active	
COCCCOc1ccnc(C[S+]([O-])c2nc3ccccc3[nH]2)c1C (configuration not stated) [RABEPRAZOLE]	Not Active	Not Active	Not Active	Not Active	Not Active	Not Active	Not Active	Not Active	Not Active	Not Active	
O=C(c1ccc(OCCN2CCCCC2)cc1)c1c(-c2ccc(O)cc2)sc2cc(O)ccc12 [RALOXIFENE]	Not Active	Not Active	Not Active	Not Active	Not Active	Not Active	Not Active	Not Active	Not Active	Not Active	
CNC(=C[N+](=O)[O-])NCCSCc1ccc(CN(C)C)o1 [RANITIDINE]	Not Active	Not Active	Not Active	Not Active	Not Active	Not Active	Not Active	Not Active	Not Active	Not Active	
CO[C@H]1/C=C/O[C@@]2(C)Oc3c(C)c(O)c4c(c3C2=O)C2=NC3(CCN(CC(C)C)CC3)NC2=C(NC(=O)/C(C)=C\C=C\[C@H](C)[C@H](O)[C@@H](C)[C@@H](O)[C@@H](C)[C@H](OC(C)=O)[C@@H]1C)C4=O [RIFABUTIN]	Not Active	Not Active	Not Active	Not Active	Not Active	Not Active	Not Active	Not Active	Not Active	Not Active	
CC(C)c1nc(CN(C)C(=O)N[C@H](C(=O)N[C@@H](Cc2ccccc2)C[C@H](O)[C@H](Cc2ccccc2)NC(=O)OCc2cncs2)C(C)C)cs1 [RITONAVIR]	Not Active	Not Active	Not Active	Not Active	Not Active	Not Active	Not Active	Not Active	Not Active	Not Active	
CC(C)CC(N(C)C)C1(c2ccc(Cl)cc2)CCC1 (configuration not stated) [SIBUTRAMINE]	Not Active	Not Active	Not Active	Not Active	Not Active	Not Active	Not Active	Not Active	Not Active	Not Active	
